We go through 8 compounds from paper PMC4945070 (PLoS Neglected Tropical Diseases, 2016).

Structures can show the parent of a compound that is named as a salt.

Assay [1] relates to C. elegans L-AChR subunits (Cel-unc-63, Cel-unc-38, Cel-lev-8, Cel-lev-1) with Hco-unc-29 paralog. Briefly: Two-electrode voltage clamp of C. elegans / H. contortus AChR subunit admixtures in Xenopus oocytes. The class given is cell-based. The source says:
To confirm that the LEV sensitivity rescue could be due to the functional incorporation of parasite protein into the C. elegans L-AChR, we injected into Xenopus oocytes, cRNA admixtures of the four essential C. elegans L-AChR subunits: Cel-unc-63, Cel-unc-38, Cel-lev-8 and Cel-lev-1, the three H. contortus accessory proteins: ric-3, unc-50 and unc-74, and the Cel-unc-29 or each Hco-unc-29 paralog in turn. Reconstitution of the C. elegans L-AChR with Cel-unc-29 produced functional channels as previously described, confirming that the H. contortus accessory proteins are functional between species. Omitting unc-29 produced no response, so any current produced using parasite genes must involve their incorporation into a functional L-AChR. […] UNC-29.1 produced an average of 500 μA currents, while the other three produced reproducible currents below 200 nA with UNC-29.2 producing the smallest response on average (S1 Fig).
The H. contortus cDNAs encoding AChR subunits and ancillary proteins were available as expression clones in the pTB207 vector and C. elegans expression clones were a gift from T. Boulin.. cRNA synthesis of each construct required NheI-linearized templates and was performed with the mMessage mMachine T7 Kit (Ambion) according to the manufacturer’s instructions. cRNAs were precipitated with lithium chloride and redissolved in RNAse-free water and stored at -80°C. cRNA concentration was determined using a Nanodrop spectrophotometer (Thermo Scientific) and cRNA purity and integrity was assessed by electrophoresis through a 1% gel stained with GreenGlo nucleic acid dye (Denville Scientific Inc.). […]
Two-electrode voltage-clamp experiments were carried out using a perfusion system connected to a flat RC-1Z chamber (Harvard Apparatus). […] Data were collected and analyzed using Clampex 9.2 and Clampfit 9.2 (Axon Instruments, Sunnyvale, CA, USA). Traces were filtered at 30 Hz and analyzed using GraphPad Prism 5.0 software (GraphPad Software, San Diego, CA, USA). […]
(Two-electrode voltage clamp holds a large cell at a set potential and records current.)

The test system of assay [2] is H. contortus L-AChR1.2 (UNC-63, UNC-38, ACR-8, UNC-29.2). Format: cell-based, Haemonchus contortus. On the procedure: (§1) The H. contortus cDNAs encoding AChR subunits and ancillary proteins were available as expression clones in the pTB207 vector and C. elegans expression clones were a gift from T. Boulin.. cRNA synthesis of each construct required NheI-linearized templates and was performed with the mMessage mMachine T7 Kit (Ambion) according to the manufacturer’s instructions. cRNAs were precipitated with lithium chloride and redissolved in RNAse-free water and stored at -80°C. cRNA concentration was determined using a Nanodrop spectrophotometer (Thermo Scientific) and cRNA purity and integrity was assessed by electrophoresis through a 1% gel stained with GreenGlo nucleic acid dye (Denville Scientific Inc.).
(§2) Oocytes were collected from mature Xenopus females according to standard procedures and incubated at 19°C in a ND96 solution (NaCl 96 mM, KCl 2 mM, CaCl2 1.8 mM, MgCl2 1 mM, and HEPES 5 mM, pH 7.3 supplemented with sodium pyruvate 2.5 mM). Defolliculated oocytes were injected into the animal pole with approximately 36 nL of a cRNA mix containing 50 ng/μL of each cRNA in RNAse-free water using the Nanoject system (Drummond Scientific, Broomall, PA). Negative controls consisted of oocytes injected with RNAse-free water. Oocytes were then stored at 19°C in ND96 for 5 days to allow receptor expression. In order to prevent activation of endogenous calcium-activated chloride channels, the oocytes were incubated in ND96 supplemented with 100 μM of the calcium chelator BAPTA-AM, 4h prior to recording.
Two-electrode voltage-clamp experiments were carried out using a perfusion system connected to a flat RC-1Z chamber (Harvard Apparatus). Glass electrodes were filled with 3M KCl and checked for resistance between 1 and 3 MΩ. The oocyte bath was connected to the ground through a 3 M KCl agar bridge. […] Data were collected and analyzed using Clampex 9.2 and Clampfit 9.2 (Axon Instruments, Sunnyvale, CA, USA). Traces were filtered at 30 Hz and analyzed using GraphPad Prism 5.0 software (GraphPad Software, San Diego, CA, USA). […]

Assay [3] concerns the target H. contortus L-AChR1.4 (UNC-63, UNC-38, ACR-8, UNC-29.4) (Haemonchus contortus, UniProt A9XX24+D6MYF2+D6MYF3+D6MYF4). The assay is described as follows: cell-based. The class given is cell-based. Also noted: Emax: dose or concentration left out as unconfirmed. To be noted: for Emax at 100 µM: agonists at 100 μM, normalized to 100 μM acetylcholine; for Emax at 100 µM / Emax: read-out: Max. Current ± S.E.; for blocking of ACh elicited currents / Max Inhibition ± S.E.: dTC 100 μM, DHβE 10 μM, MECA 30 μM; for blocking of ACh elicited currents: 100 μM ACh; for Max Inhibition ± S.E.: inhibition of 100 μM ACh current. How it is done: as §1, §2
(§3) Two-electrode voltage-clamp experiments were carried out using a perfusion system connected to a flat RC-1Z chamber (Harvard Apparatus). Glass electrodes were filled with 3M KCl and checked for resistance between 1 and 3 MΩ. The oocyte bath was connected to the ground through a 3 M KCl agar bridge. Agonist and antagonists were dissolved or diluted in recording solution (100 mM NaCl, 2.5 mM KCl, 1 mM CaCl2, 5 mM HEPES, pH 7.3). All measurements were performed using a Geneclamp 500B amplifier and Digidata 1322M (Axon Instruments), oocytes were voltage-clamped at -60 mV. Drug solutions were applied to oocytes by gravity flow using perfusion syringes directly connected to the chamber. Data were collected and analyzed using Clampex 9.2 and Clampfit 9.2 (Axon Instruments, Sunnyvale, CA, USA). Traces were filtered at 30 Hz and analyzed using GraphPad Prism 5.0 software (GraphPad Software, San Diego, CA, USA). Final results are presented as means ± SE.

For assay [4], the target named is H. contortus L-AChR1.3 (UNC-63, UNC-38, ACR-8, UNC-29.3) (Haemonchus contortus, UniProt A9XX24+D6MYF1+D6MYF3+D6MYF4). Briefly: cell-based. To be noted: for Emax at 100 µM: agonists at 100 μM, normalized to 100 μM acetylcholine; for Emax at 100 µM / Emax: read-out: Max. Current ± S.E.; for blocking of ACh elicited currents / Max Inhibition ± S.E.: dTC 100 μM, DHβE 10 μM, MECA 30 μM; for blocking of ACh elicited currents: 100 μM ACh; for Max Inhibition ± S.E.: inhibition of 100 μM ACh current. Also noted: Emax: dose or concentration left out as unconfirmed. How it is done: as §1, §2, §3

Assay [5] deals with H. contortus L-AChR1.1 (UNC-63, UNC-38, ACR-8, UNC-29.1) (Haemonchus contortus, UniProt A9XX24+D6MYE9+D6MYF3+D6MYF4). Briefly: cell-based. To be noted: for Emax at 100 µM: agonists at 100 μM, normalized to 100 μM acetylcholine; for Emax at 100 µM / Emax: read-out: Max. Current ± S.E.; for blocking of ACh elicited currents / Max. Inhibition ± S.E.: dTC 100 μM, DHβE 10 μM, MECA 30 μM; for blocking of ACh elicited currents: 100 μM ACh; for Max. Inhibition ± S.E.: inhibition of 100 μM ACh current. Also noted: Emax: dose or concentration left out as unconfirmed. On the procedure: as §1, §2, §3

Assay [6] concerns the target H. contortus L-AChR1.1 with added UNC-29.2 (Haemonchus contortus, UniProt A9XX24+D6MYE9+D6MYF3+D6MYF4). Briefly: Two-electrode voltage clamp of L-AChR1.1 supplemented with unc-29.2 cRNA in Xenopus oocytes. Format: cell-based.
From the text: Typically, such a situation can be identified by a change in the pharmacological properties of a receptor with addition of the second subunit. To address this, we examined the possibility that UNC-29.2 may interfere with or modify the properties of the reconstituted L-AChR1.1. We prepared oocytes injected with cRNAs to express the H. contortus L-AChR1.1 and supplemented this with an increasing (0.2, 1, 5 times) concentration of cRNA for UNC-29.2 relative to UNC-29.1.
as §1, §2, §3

Where [7] appears, read: read-out: blocking of ACh elicited currents.

For the compound `CC(=O)OCC[N+](C)(C)C` [ACh, Acetylcholine chloride], in assay [1] (admixture with UNC-29.1), the “average current on perfusion of 100 μM ACh” value is on record as 500 μA. In addition, the “current on perfusion of 100 μM ACh” value in assay [1] (admixtures with the other three paralogs (UNC-29.2, UNC-29.3, UNC-29.4)) was “below 200 nA”. For the same compound, the “current in response to 100 μM perfusion” value in assay [2] (UNC-29.1 replaced by UNC-29.2, n = 18) is reported as “failed to produce any detectable current”. The “Max ACh Current” value in assay [2] (receptor with Hco-UNC-29.2) is 0 μA; in assay [3] (L-AChR1.4 (Hco-UNC-29.4)), about 500 nA; in assay [4] (L-AChR1.3 (Hco-UNC-29.3)) it was about 1.5 μA; in assay [5] (L-AChR1.1 (Hco-UNC-29.1)), about 1.5 μA. Also, the Hill is 1.12 ± 0.04 in assay [3] (L-AChR1.4, Hill coefficient of concentration-response curve); 0.89 ± 0.05 in assay [4] (L-AChR1.3, Hill coefficient of concentration-response curve); 0.88 ± 0.05 in assay [5] (L-AChR1.1, Hill coefficient of concentration-response curve); 0.91 ± 0.08 in assay [6] (29.1 : 29.2 cRNA 1 : 0.2); 0.96 ± 0.13 in assay [6] (29.1 : 29.2 cRNA 1 : 1); 1.09 ± 0.10 in assay [6] (29.1 : 29.2 cRNA 1 : 5). Besides, the Emax at 100 µM in assay [3] (L-AChR1.4), in assay [4] (L-AChR1.3) and in assay [5] (L-AChR1.1) was 100% each time. The “effect of unc-29.2 cRNA on the pharmacological response” value in assay [6] (0.2, 1, 5 times unc-29.2 cRNA relative to UNC-29.1) is “no effect”.

For `C[N+](C)(CCOc1ccccc1)Cc1ccccc1` [Bephenium, bephenium hydroxynaphtoate], the Emax at 100 µM in assay [3] (L-AChR1.4) was determined as 6.45 ± 0.84%; in assay [4] (L-AChR1.3) it was 9.59 ± 0.83%; in assay [5] (L-AChR1.1), 13.9 ± 1.7%.

`COc1cc2c3cc1Oc1cc(ccc1O)C[C@@H]1c4c(cc(OC)c(O)c4Oc4ccc(cc4)C[C@@H]3N(C)CC2)CC[N+]1(C)C` [D-turbocurarine, (+)-tubocurarine chloride hydrate]: in assay [3] (L-AChR1.4), the “blocking of ACh elicited currents” value was “efficiently blocked the ACh responses” and the “Max Inhibition ± S.E.” value was 97.52 ± 1.09. In assay [4] (L-AChR1.3), the “blocking of ACh elicited currents” value is on record as “efficiently blocked the ACh responses” and the “Max Inhibition ± S.E.” value was found to be 99.98 ± 0.02. Besides, in assay [5] (L-AChR1.1), the “blocking of ACh elicited currents” value is “efficiently blocked the ACh responses” and the “Max. Inhibition ± S.E.” value turned out to be 99.63 ± 0.35.

Consider `Br.CO[C@H]1CC=C2CCN3CCC4=C(CC(=O)OC4)[C@]23C1` [DHßE, Dihydro-berythroidine hydrobromide], for which, in assay [3] (L-AChR1.4), the “blocking of ACh elicited currents” value is on record as “weak average inhibition” and the “Max Inhibition ± S.E.” value is recorded as 16.51 ± 5.73. Also, in assay [4] (L-AChR1.3), the “blocking of ACh elicited currents” value is listed as “weak average inhibition” and the “Max Inhibition ± S.E.” value is given as 23.55 ± 1.94. Moreover, in assay [5] (L-AChR1.1), the “blocking of ACh elicited currents” value was “weak average inhibition” and the “Max. Inhibition ± S.E.” value was determined as 15.98 ± 2.16.

Regarding `C[N+]1(C)CCN(c2ccccc2)CC1` [DMPP, 1,1-dimethyl-4-phenylpiperazinium iodide], the results for the Emax at 100 µM in assay [3] (L-AChR1.4), in assay [4] (L-AChR1.3) and in assay [5] (L-AChR1.1) were 31.6 ± 1%, 36.9 ± 3.93% and 42 ± 1.41%, respectively.

Turning to `CNC1(C)C2CCC(C2)C1(C)C` (stereo not shown) [Mecamylamine, mecamylamine hydrochloride], the entries for the “MECA inhibition (summary)” value in assay [3] (L-AChR1.4), in assay [4] (L-AChR1.3) and in assay [5] (L-AChR1.1) were “Full Inhibition”, “Partial Inhibition” and “Full Inhibition”, respectively. In addition, the figures for the inhibition at 30 µM in assay [3] (setting [7]), in assay [4] (setting [7]) and in assay [5] (setting [7]) were 96.4 ± 1.9%, 56.9 ± 3.2% and 99.9 ± 0.1%, respectively. Further, the “Max Inhibition ± S.E.” value in assay [4] (L-AChR1.3) stood at 56.87 ± 3.18. The “Max. Inhibition ± S.E.” value in assay [5] (L-AChR1.1) stood at 99.91 ± 0.09.

With `CN1CCC[C@H]1c1cccnc1` [Nicotine, (-)-nicotine hydrogen tartrate], the Emax came to 1.52 ± 0.47% in assay [3], 6.79 ± 1.46% in assay [4] and 4.7 ± 1.05% in assay [5].

In the case of `CN1CCCN=C1/C=C/c1cccs1` [Pyrantel, pyrantel citrate], the Emax in assay [3] turned out to be 7.32 ± 0.98%; in assay [4], 13.8 ± 1.26%; in assay [5], 11.8 ± 0.99%.
